Reference: patent publication US10100058B2, “Fused heterocyclic compounds as CaM kinase inhibitors” (Gilead Sciences, Inc., priority 2016, dated 2018)

Biological target: recombinant CaMKIIδ (Homo sapiens (Human), UniProt Q13557)
Experiment: CaMKIIδ biochemical assay (HTRF)
Conditions: 10 pM CaMKIIδ, 110 nM calmodulin, 12 μM ATP, 1 hour; read-out: CAMKIID-HTRF-384V2 (IC50 - nM)
Protocol: CaMKIIδ Biochemical Assay
The biochemical activity of recombinant CaMKIIδ was measured by monitoring the phosphorylation of a target peptide using Homogenous Time Resolved Fluorescence (HTRF) technology from CisBio Bioassays.

Point of comparison: CCN(CC)CCNC(=O)c1cc(-c2cnn3ccc(-c4cccs4)nc23)nc(N2CC[C@H]2C(=O)NC)c1 [Example 360, (S)—N-(2-(diethylamino)ethyl)-2-(2-(methylcarbamoyl)azetidin-1-yl)-6-(5-(thiophen-2-yl)pyrazolo[1,5-a]pyrimidin-3-yl)isonicotinamide], IC50 2.98 nM. Against it:
- CCN(CC)[C@@H](C)CNC(=O)c1cc(OCCc2cnccn2)nc(-c2cnn3ccc(-c4cccs4)nc23)c1 [Example 350, (S)—N-(2-(diethylamino)propyl)-2-(2-(pyrazin-2-yl)ethoxy)-6-(5-(thiophen-2-yl)pyrazolo[1,5-a]pyrimidin-3-yl)isonicotinamide] — 9.6-fold lower, 0.31 nM
- CCN(CC)[C@@H](C)CNC(=O)c1cc(OCCCOC)nc(-c2cnn3ccc(-c4cccs4)nc23)c1 [Example 351, (S)—N-(2-(diethylamino)propyl)-2-(3-methoxypropoxy)-6-(5-(thiophen-2-yl)pyrazolo[1,5-a]pyrimidin-3-yl)isonicotinamide] — 8.8-fold lower, 0.34 nM
- CCN(CC)[C@@H](C)CNC(=O)c1cc(OCCN2CCOCC2)nc(-c2cnn3ccc(-c4cccs4)nc23)c1 [Example 352, (S)—N-(2-(diethylamino)propyl)-2-(2-morpholinoethoxy)-6-(5-(thiophen-2-yl)pyrazolo[1,5-a]pyrimidin-3-yl)isonicotinamide] — 14-fold lower, 0.21 nM
- CCN(CC)[C@@H](C)CNC(=O)c1cc(OCC(C)(C)O)nc(-c2cnn3ccc(-c4cccs4)nc23)c1 [Example 353, (S)—N-(2-(diethylamino)propyl)-2-(2-hydroxy-2-methylpropoxy)-6-(5-(thiophen-2-yl)pyrazolo[1,5-a]pyrimidin-3-yl)isonicotinamide] — 30-fold lower, 0.1 nM
- CCN(CC)[C@@H](C)CNC(=O)c1cc(OCc2cccnc2)nc(-c2cnn3ccc(-c4cccs4)nc23)c1 [Example 354, (S)—N-(2-(diethylamino)propyl)-2-(pyridin-3-ylmethoxy)-6-(5-(thiophen-2-yl)pyrazolo[1,5-a]pyrimidin-3-yl)isonicotinamide] — 2.8-fold lower, 1.05 nM
- CCN(CC)[C@@H](C)CNC(=O)c1cc(OCc2ccc[n+]([O-])c2)nc(-c2cnn3ccc(-c4cccs4)nc23)c1 [Example 355, (S)-3-(((4-((2-(diethylamino)propyl)carbamoyl)-6-(5-(thiophen-2-yl)pyrazolo[1,5-a]pyrimidin-3-yl)pyridin-2-yl)oxy)methyl)pyridine 1-oxide] — 5.5-fold lower, 0.54 nM
- CCC(CNC(=O)c1cc(-c2cnn3ccc(-c4cccs4)nc23)nc(N2CC[C@H]2C(=O)NC)c1)N(CC)CC (stereo partly drawn) [Example 356, N-(2-(diethylamino)butyl)-2-((S)-2-(methylcarbamoyl)azetidin-1-yl)-6-(5-(thiophen-2-yl)pyrazolo[1,5-a]pyrimidin-3-yl)isonicotinamide] — 4.3-fold lower, 0.7 nM
- CCCN(CC)[C@@H](C)CNC(=O)c1cc(-c2cnn3ccc(-c4cccs4)nc23)nc(N2CC[C@H]2C(=O)NC)c1 [Example 357, N—((S)-2-(ethyl(propyl)amino)propyl)-2-((S)-2-(methylcarbamyl)azetidin-1-yl)-6-(5-(thiophen-2-yl)pyrazolo[1,5-a]pyrimidin-3-yl)isonicotinamide] — 11-fold lower, 0.27 nM
- CCN(CC)[C@@H](CO)CNC(=O)c1cc(-c2cnn3ccc(-c4cccs4)nc23)nc(N2CC[C@H]2C(=O)NC)c1 [Example 358, N—((R)-2-(diethylamino)-3-hydroxypropyl)-2-((S)-2-(methylcarbamoyl)azetidin-1-yl)-6-(5-(thiophen-2-yl)pyrazolo[1,5-a]pyrimidin-3-yl)isonicotinamide] — 6.5-fold lower, 0.46 nM
- CCN(CC)[C@@H](CO)CNC(=O)c1cc(-c2cnn3ccc(-c4cccs4)nc23)nc(N2CC[C@H]2C(=O)NC)c1 [Example 359, N—((R)-2-(diethylamino)-3-hydroxypropyl)-2-((S)-2-(methylcarbamoyl)azetidin-1-yl)-6-(5-(thiophen-2-yl)pyrazolo[1,5-a]pyrimidin-3-yl)isonicotinamide] — 8.5-fold lower, 0.35 nM
- CCN(CC)[C@@H](C)CNC(=O)c1cc(-c2cnn3ccc(-c4ccc(F)s4)nc23)nc(N2CC[C@H]2C(=O)NC)c1 [Example 361, N—((S)-2-(diethylamino)propyl)-2-(5-(5-fluorothiophen-2-yl)pyrazolo[1,5-a]pyrimidin-3-yl)-6-((S)-2-(methylcarbamoyl)azetidin-1-yl)isonicotinamide] — 20-fold lower, 0.15 nM
- CCN(CC)[C@@H](C)CNC(=O)c1cncc(-c2cnn3ccc(-c4cccs4)nc23)c1 [Example 362, (S)—N-(2-(diethylamino)propyl)-5-(5-(thiophen-2-yl)pyrazolo[1,5-a]pyrimidin-3-yl)nicotinamide] — 5.7-fold lower, 0.52 nM
- CCN(CC)[C@@H](C)CNC(=O)c1cc(-c2cnn3ccc(-c4cccs4)nc23)ccn1 [Example 363, (S)—N-(2-(diethylamino)propyl)-4-(5-(thiophen-2-yl)pyrazolo[1,5-a]pyrimidin-3-yl)picolinamide] — 2.3-fold lower, 1.3 nM
- CCN(CC)[C@@H](C)CNC(=O)c1cccc(-c2cnn3ccc(-c4cccs4)nc23)n1 [Example 364, (S)—N-(2-(diethylamino)propyl)-6-(5-(thiophen-2-yl)pyrazolo[1,5-a]pyrimidin-3-yl)picolinamide] — 240-fold higher, 715 nM
